From patent US7867496B2, “Use of TGF-β antagonists to limit nephrotoxicity of immunosuppressive agents” (Genzyme Corporation, priority 2004, dated 2011)
“Also recorded” adds a separate entry of the source.

Assays:
TGF-β mRNA = experiment: intrarenal TGF-β mRNA by real-time PCR, TAC study; type: in vivo, rat; conditions: TAC alone, 90 days post transplantation, with respect to isograft controls
Method: (§1) TAC was administered at 0.25 mg/kg i.m. for 90 days; and the anti-TGF-β antibody, 1D11, was administered at 1 mg/kg twice a week. The control antibody used was 13C4.
(§2) RT-PCR was performed using a Bio-Rad iCycler™ system (Bio-Rad, Hercules, Calif.). RNAs were isolated from renal tissues using a kit from Promega (Madison, […].) and reverse-transcribed into cDNAs by using a cDNA synthesis kit from Invitrogen (Carlsbad, Calif.). The specificity of primers was tested by running a regular PCR for 40 cycles at 95° C. for 20 seconds and 60° C. for 1 minute, followed by separating in ethidium bromide containing agarose gels. The real-time PCR was performed using a SYBR Supermix kit (Bio-RAD) (40 cycles at 95° C. for 20 s and 60° C. for 1 minute). The PCR efficiency was examined by serially diluting template cDNA. The melting curve data was collected to check the PCR specificity and proper negative controls were included in each assay. The mRNA level for each gene for each sample was normalized to β-actin mRNA and presented as 2-[(Ct/β-actin-Ct/gene of interest)] as described in Khanna et al. (2005) Nephron Exp. Nephrol., 101:119-126.
(§3) Intrarenal expression of TGF-β, NOX-1 and p22phox was analyzed by RT-PCR in renal tissues from (1) isografts, (2) TAC, (3) TAC+anti-TGF-β antibody, and (3) TAC+control antibody treated animals at 90 days post transplantation. […]

NOX-1 mRNA = experiment: intrarenal NOX-1 mRNA by real-time PCR, TAC study; type: in vivo, rat; conditions: TAC alone, 90 days, with respect to isograft controls
Method: as §1, §2, §3

p22phox mRNA = experiment: intrarenal p22phox mRNA by real-time PCR, TAC study; type: in vivo, rat; conditions: TAC alone, 90 days, with respect to isograft controls
Method: as §1, §2, §3

RAC-1 mRNA = experiment: intrarenal RAC-1 mRNA by real-time PCR, TAC study; type: in vivo, rat; conditions: TAC alone, 90 days, with respect to isograft controls
Method: as §1, §2, §3

SOD mRNA = experiment: intrarenal SOD mRNA by real-time PCR, TAC study; type: in vivo, rat; conditions: TAC alone compared to isograft controls
Method: as §1, §2
(§4) To further examine the effect of prolonged treatment with TAC on antioxidant genes, intrarenal mRNA expression of SOD and TRX was determined.

TRX mRNA = experiment: intrarenal TRX mRNA by real-time PCR, TAC study; type: in vivo, rat; conditions: TAC alone compared to isograft controls
Method: as §1, §2, §4

p22phox protein = experiment: intragraft p22phox protein by Western blot, TAC study; type: in vivo, rat; conditions: TAC compared to untreated allografts and isograft controls; monohydrate
Method: (§5) Frozen tissues were homogenized in ice-cold PBS with 1% Triton X-100, 1 mM phenylmethysulfonyl fluoride, 35 ng/ml pepstatin A and 10 ng/ml leupeptin. After centrifugation, 50 μg: of protein was electrophoresed by SDS PAGE as described in Khanna et al. (2005) Nephron Exp. Nephrol., 101:119-126. Blots were probed with appropriate dilutions of a polyclonal anti-p22phox antibody (RS554, a gift from Marsh Lab, Bozeman, Mont.) or anti-NOX antibody (Santa Cruz Biotechnology, Santa Cruz, Calif.), incubated with a horseradish peroxidase-conjugated secondary antibody at a 1:5,000 dilution, and visualized by enhanced chemiluminescence.
(§6) Expression of p22^phox and NOX-1 proteins was analyzed in kidney tissues from isografts, untreated allografts, and animals treated with TAC. Protein lysates (10 μg) were electrophoresed, transferred to nitrocellulose paper and probed with anti-p22^phox and anti NOX-1 antibodies.

NOX-1 protein = experiment: intragraft NOX-1 protein by Western blot, TAC study; type: in vivo, rat; conditions: TAC compared to untreated allografts and isograft controls; monohydrate
Method: as §5, §6

renal transplant = renal transplant histology, TAC study; type: in vivo, rat; conditions: TAC alone compared to isografts; monohydrate
Description: A portion of transplanted kidneys from each animal was fixed with formalin and imbedded in paraffin. Hematoxylin and eosin (H&E) and periodic acid schiff (PAS) stainings were used to assess histological changes. Renal histological changes we quantified by standard procedures. The severity of the glomerular injury was scored as described in Khanna et al. (2000) Transplantation, 73:1543-1549. Briefly, in each field, at least 50-60 glomeruli were counted for each specimen and lesions were scored on a five-point scale (0, no proliferation, almost normal histology; 1, about 25% segmental lesion; 2, segmental lesion of greater than 25% but less than 50%; 3, fibrotic lesions with diffuse proliferation; 4, almost completely fibrotic changes). PAS staining was used to determine the extent of extracellular matrix protein accumulation (not scored). Interlobular arteries in H&E-stained slides and lesions were scored.
The slides were mounted with Permount™ for evaluation. Samples from each group were graded for histopathological changes and immunohistochemical staining. The intensity of immunostaining was graded from 0 (no staining) to 4+ (maximum staining). […]
The effect of TAC, TAC+a control antibody and TAC+anti-TGF-β antibody treatment on morphological changes was assessed by histopathological examination in H&E- and PAS-stained thin kidney sections were evaluated.

TGF-β protein = experiment: intrarenal TGF-β protein immunohistochemistry, TAC study; type: in vivo, rat; conditions: TAC alone
Method: Plasma levels of TGF-β protein were measured as described in Khanna et al. (1999) Transplantation, 67:882-889. Intrarenal protein expression of TGF-β was examined immunohistochemically as essentially as described in Khanna et al. (2000) Transplantation, 73:1543-1549; Khanna et al. (2002) Kidney Intl., 62:2257-63; and Khanna et al. (1999) Transplantation, 67:614-619. Formalin-fixed paraffin-embedded tissues were sliced into fine sections, deparaffinized in xylene and rehydrated in graded ethanol to phosphate-buffered saline (PBS). After blocking endogenous peroxidase activity for 30 minutes with methanol/H2O2 (18:1 vol/vol), nonspecific binding was blocked for 1 hour with 1.5% avidin/biotin diluted in PBS supplemented with 10% normal horse serum and 3% BSA. Tissue sections were incubated overnight at 4° C. with specific primary antibodies (50 μg/ml) in above-mentioned PBS. Following extensive washing in PBS, slides were incubated at room temperature for 1 hour with diluted (1:1,000) biotin-labeled anti-mouse IgG horse anti-serum and washed again extensively in PBS and then in the ABC solution for 30 minutes. The slides were developed for 10 minutes in diaminobenzidine (DAB) and rinsed in water for 10 minutes. The slides were then counterstained with hematoxylin and dehydrated in graded ethanol and xylene.
The slides were mounted with Permount™ for evaluation. […]

TGF-β = conditions: cited from earlier work

C=CC[C@@H]1/C=C(\C)C[C@H](C)C[C@H](OC)[C@H]2O[C@@](O)(C(=O)C(=O)N3CCCC[C@H]3C(=O)O[C@H](/C(C)=C/[C@@H]3CC[C@@H](O)[C@H](OC)C3)[C@H](C)[C@@H](O)CC1=O)[C@H](C)C[C@@H]2OC (relative stereo) [TAC, [3S-[3R*[E (1S*,3S*,4S*)], 4S*,5R*,8S*,9E, 12R*,14R*,15S*,16R*,18S*,19S*,26aR*]]-5,6,8,11,12,13,14,15,16,17,18,19,24,25,26,26a-hexadecahydro-5,19-dihydroxy-3-[2-(4-hydroxy-3-methoxycyclohexyl)-1-methylethenyl]-14,16-dimethoxy-4,10,12,18-tetramethyl-8-(2-propenyl)-15,19-epoxy-3H-pyrido[2,1-c][1,4]oxaazacyclotricosine-1,7,20,21 (4H,23H)-tetrone, monohydrate]
increase in intrarenal TGF-β mRNA expression (TGF-β mRNA): 37 fold
increase in intrarenal NOX-1 mRNA expression (NOX-1 mRNA): 18 fold
increase in intrarenal p22phox mRNA expression (p22phox mRNA): 31 fold
increase in intrarenal RAC-1 mRNA expression (RAC-1 mRNA): 20 fold
decrease in intrarenal SOD mRNA expression (SOD mRNA): 27 fold
decrease in intrarenal TRX mRNA expression (TRX mRNA): 80 fold
intragraft expression of p22phox protein (p22phox protein): increased intragraft expression; also recorded: elevated
intragraft expression of NOX-1 protein (NOX-1 protein): increased intragraft expression; also recorded: elevated
renal histological changes (H&E, PAS) (renal transplant): marked histological changes; also recorded: statistically significant (p<0.036) difference
intrarenal staining for TGF-β protein (TGF-β protein): increased staining for TGF-β protein

CAT192: fully human recombinant anti-TGF-β antibody generated by phage display; specifically binds TGF-β1 only
Kd (TGF-β; approximately, binds TGF-β1 only, read-out: antigen affinity): ~8.4 pM
TGF-β isoform binding specificity (TGF-β; mammalian isoforms of TGF-β): specifically binds TGF-β1 only
